This note sets out measurements from PubChem BioAssay (NCI).

What all share (test): NCI-60 cell line screen, 48 h
Experiment [1] deals with UACC-62 melanoma.
In experiment [2] the test system is A549 NSCLC.
Experiment [3] concerns SF-268 CNS.
In experiment [4] the test system is PC-3 prostate.
The subject of experiment [5] is SK-OV-3 ovarian.
Experiment [6] deals with NCI-H460 lung.
Experiment [7] relates to SF-295 CNS.
Experiment [8] concerns EKVX NSCLC.

Several values for one entry are separate records, joined by “and”; a condition that tells them apart may be missing. Equal entries are not always repeated.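 Cells were grown in 96-well plates and exposed to each compound for 48 hours at five concentrations; endpoints were interpolated linearly between bracketing concentrations, or set to the highest concentration if not reached. Abbreviation: GI50, concentration required for 50% inhibition of growth. TGI: concentration producing complete growth inhibition.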

Regarding `Nc1[nH]nc(Nc2ccccc2)c1-c1nc2ccccc2s1`, the GI50 is 1.4 µM in experiment [1]; 2.96 µM in experiment [2]; 2.36 µM in experiment [3]; 1.58 µM in experiment [4]; 4.63 µM in experiment [5]; 1.94 µM in experiment [6]. In addition, the GI50 in experiment [7] is 1.56 µM; in experiment [8], 1.26 µM. Further, the TGI in experiment [1] came out at 2.96 µM; in experiment [2], 11.9 µM; in experiment [3], 8.83 µM; in experiment [4], 3.39 µM; in experiment [5] it was 15.7 µM; in experiment [6], 4.17 µM. For the same compound, the TGI in experiment [7] is 3.27 µM; in experiment [8], 4.28 µM.
As for `O=C1c2ccccc2C(=O)N1c1ccc(Cc2ccc(N3C(=O)c4ccccc4C3=O)cc2)cc1`, the TGI in experiment [1], in experiment [2], in experiment [3], in experiment [4], in experiment [5] and in experiment [6] was over 100 µM each time. Besides, the TGI in experiment [7] and in experiment [8] was over 100 µM in each case.
Consider `CCCC(=O)Oc1ccc(/C(=C(\C)c2ccc(Cl)cc2)c2ccc(OCCN(CC)CC)cc2)cc1`, for which the GI50 in experiment [1] is 2.06 µM; in experiment [2] it was 2.58 µM; in experiment [3], 3.81 µM; in experiment [4], 0.56 µM; in experiment [5] it was 4.85 µM; in experiment [6] it was 2.12 µM. For the same compound, the GI50 in experiment [7] was 1.93 µM; in experiment [8], 7.2 µM. In addition, the TGI in experiment [1] was determined as 4.04 µM; in experiment [2], 6.91 µM; in experiment [3], 19 µM; in experiment [4], 14.1 µM; in experiment [5] it was 17.5 µM; in experiment [6] it was 4.4 µM. Besides, the TGI came out at 3.81 µM in experiment [7] and 21 µM in experiment [8].
For `COc1ccc(-n2nc(C)c3c(Nc4ccc(NC(=O)Nc5cccc(C(F)(F)F)c5)cc4)ncnc32)cc1`, the GI50 in experiment [1] was 1.76 µM; in experiment [2] it was 1.65 µM; in experiment [3] it was 2.14 µM; in experiment [4], 1.49 µM; in experiment [5], 2.13 µM; in experiment [6] it was 1.98 µM. In addition, the GI50 in experiment [7] was 1.67 µM; in experiment [8], 1.93 µM. For the same compound, the TGI turned out to be 3.46 µM in experiment [1]; 3.45 µM in experiment [2]; 5.51 µM in experiment [3]; 3.9 µM in experiment [4]; 5.3 µM in experiment [5]; 4.12 µM in experiment [6]. Also, the TGI is 3.3 µM in experiment [7] and 4.34 µM in experiment [8].
For the compound `C=C1C(=O)OC2CC1C(OC(=O)/C=C/c1ccccc1)C/C(C)=C/CC/C(C)=C/CCC2(C)O` (configuration not stated), the TGI stood at 4.51 µM in experiment [1]; 3.19 µM in experiment [2]; 3.81 µM in experiment [3]; 3.22 µM in experiment [4]; 5.46 µM in experiment [5]; 2.74 µM in experiment [6]. Moreover, the TGI in experiment [7] was determined as 3.01 µM; in experiment [8], 3.66 µM.
Regarding `N#CC1=C(N)NC(=O)C(C#N)C12Nc1ccccc1S2` (configuration not stated), the GI50 in experiment [1] was 60.5 µM; in experiment [2], over 100 µM; in experiment [3] it was over 100 µM; in experiment [4], 60.4 µM; in experiment [5], 66.6 µM; in experiment [6], over 100 µM. Further, the values for the GI50 in experiment [7] and in experiment [8] were 50.6 µM and over 100 µM, respectively. Moreover, the TGI in experiment [1], in experiment [2], in experiment [3], in experiment [4], in experiment [5] and in experiment [6] was over 100 µM each time. For the same compound, the TGI in experiment [7] and in experiment [8] was over 100 µM each time.
For `CCN(Cc1cc(Cl)cc(C)c1O)Cc1c(O)ccc2ccccc12`, the TGI stood at 31.4 µM in experiment [1]; 38 µM in experiment [2]; 34.8 µM in experiment [3]; 29.9 µM in experiment [4]; 29.8 µM in experiment [5]; 36 µM in experiment [6]. Moreover, the results for the TGI in experiment [7] and in experiment [8] were 31.3 µM and 32.8 µM, respectively.
Turning to `O=C(c1ccc(Cl)cc1Cl)N1CCN(C(=O)c2ccc(Cl)cc2Cl)C1=S`, the GI50 in experiment [1] was 17.3 µM; in experiment [2], 20.1 µM; in experiment [3], 24.5 µM; in experiment [4], 22.7 µM; in experiment [5], 22.8 µM; in experiment [6] it was 35.4 µM. For the same compound, the figures for the GI50 in experiment [7] and in experiment [8] were 22.9 µM and 20.5 µM, respectively. In addition, the TGI in experiment [1] was 31.6 µM; in experiment [2] it was 43.2 µM; in experiment [3] it was 56.1 µM; in experiment [4] it was 68.3 µM; in experiment [5] it was 55.4 µM; in experiment [6] it was over 100 µM. The values for the TGI in experiment [7] and in experiment [8] were 61.7 µM and 48.4 µM, respectively.
As to `COC(=O)CNC(=O)C(=O)c1c(O)c(O)c(C(C)C)c2cc(C)c(-c3c(C)cc4c(C(C)C)c(O)c(O)c(C(=O)C(=O)NCC(=O)OC)c4c3O)c(O)c12`, the GI50 was 2.23 µM in experiment [1]; 2.13 µM in experiment [2]; 1.88 µM in experiment [3]; 1.84 µM in experiment [4]; 1.79 µM in experiment [5]; 1.52 µM in experiment [6]. In addition, the GI50 was 1.46 µM in experiment [7] and 1.2 µM in experiment [8]. The TGI in experiment [1] was determined as 9.48 µM; in experiment [2], 8.01 µM; in experiment [3] it was 8.75 µM; in experiment [4], 7.26 µM; in experiment [5], 6.89 µM; in experiment [6], 4.57 µM. For the same compound, the values for the TGI in experiment [7] and in experiment [8] were 6.89 µM and 4.99 µM, respectively.
For `O=[N+]([O-])c1ccccc1/C=N\NC(=S)N/N=C/c1ccccc1[N+](=O)[O-]`, the GI50 is 4.52 µM in experiment [1]; 8.92 µM in experiment [2]; 5.73 µM in experiment [3]; 10 µM in experiment [4]; 6.07 µM in experiment [5]; 3.64 µM in experiment [6]. The GI50 is 1.87 µM in experiment [7] and 8.11 µM in experiment [8]. Besides, the TGI in experiment [1], in experiment [2], in experiment [3], in experiment [4], in experiment [5] and in experiment [6] was over 100 µM throughout. In addition, the TGI was 7.41 µM in experiment [7] and over 100 µM in experiment [8].
`CCc1nc(N)nc(N)c1C#CC(C)c1ccc(-c2ccncc2)cc1Cl` (configuration not stated): the GI50 in experiment [1] was < 0.005 µM and 0.0186 µM; in experiment [2], under 0.005 µM; in experiment [3], 0.0287 µM and 0.0682 µM; in experiment [4] it was under 0.005 µM; in experiment [5] it was 0.0977 µM and 0.0932 µM; in experiment [6], under 0.005 µM. Moreover, the GI50 in experiment [7] was 0.00508 µM and 0.0141 µM; in experiment [8], 0.0259 µM and 0.0772 µM. The TGI in experiment [1] is 4.39 µM and 10.9 µM; in experiment [2] it was 2 µM and 11.4 µM; in experiment [3], 3.2 µM and 16.8 µM; in experiment [4], 4.85 µM and 12.5 µM; in experiment [5] it was 2.63 µM and 14.6 µM; in experiment [7], 0.809 µM and 4.24 µM. In addition, the TGI in experiment [8] is 2.5 µM and 12.6 µM.
For `COc1ccc(C2=Nn3c(nnc3-c3ccc(F)c(Cl)c3)SC2)cc1`, the GI50 in experiment [1], in experiment [2], in experiment [3], in experiment [4], in experiment [5] and in experiment [6] was over 100 µM throughout. In addition, the GI50 in experiment [7] and in experiment [8] was over 100 µM throughout. Moreover, the TGI in experiment [1], in experiment [2], in experiment [3], in experiment [4], in experiment [5] and in experiment [6] was over 100 µM each time. Further, the TGI in experiment [7] and in experiment [8] was over 100 µM in each case.
Turning to `COC(=O)NC1(NC(=O)OC)NC(=O)c2ccccc2N1`, the TGI in experiment [1], in experiment [2], in experiment [3], in experiment [4], in experiment [5] and in experiment [6] was over 100 µM in each case. In addition, the TGI in experiment [7] and in experiment [8] was over 100 µM each time.
As to `COc1ccc(CCN2CCCn3c2nc2ccccc2c3=O)cc1`, the GI50 was 0.185 µM in experiment [1]; 0.087 µM in experiment [2]; 1.16 µM in experiment [3]; 0.127 µM in experiment [4]; 0.396 µM in experiment [5]; 0.0512 µM in experiment [6]. For the same compound, the GI50 in experiment [7] was 0.0597 µM; in experiment [8], 0.97 µM. The TGI in experiment [1], in experiment [2], in experiment [3], in experiment [4], in experiment [5] and in experiment [6] was over 100 µM each time. Further, the TGI in experiment [7] was over 54.2 µM; in experiment [8], over 100 µM.
As to `COc1cc(/C=C/C(=O)c2c(C)n([O-])c3ccccc3[n+]2=O)cc(OC)c1OC`, the GI50 was 11.3 µM in experiment [1]; 8.69 µM in experiment [2]; 5.65 µM in experiment [3]; 4.45 µM in experiment [4]; 11 µM in experiment [5]; 3.63 µM in experiment [6]. Moreover, the GI50 in experiment [7] is 4.34 µM; in experiment [8] it was 2.43 µM. Moreover, the TGI in experiment [1] came to 23.3 µM; in experiment [2] it was 21.6 µM; in experiment [3], 25.7 µM; in experiment [4] it was 19.3 µM; in experiment [5], 25.5 µM; in experiment [6], 13.1 µM. Also, the TGI in experiment [7] was 14.8 µM; in experiment [8] it was 6.86 µM.
